Source: ChEMBL document CHEMBL1201862, “PubChem BioAssay data set” (2004)
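How tested: cells in 96-well plates exposed to compound for 48 hours at five concentrations. Here, GI50 denotes the concentration required for 50% inhibition of growth.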 The source made the active and inactive calls. Rule as the data show it: active = GI50 up to about 1.1 µM and inactive = higher.

Tests used:
Assay in all cases: DTP human tumour cell line panel, 48 h
LXFL 529 = tested on: LXFL 529
KM-20L2 = tested on: KM-20L2
DLD-1 = tested on: DLD-1
SNB-78 = tested on: SNB-78
RXF 631 = tested on: RXF 631
DMS-273 = tested on: DMS-273
HOP-18 = tested on: HOP-18
M19-MEL = tested on: M19-MEL
XF498 = tested on: XF498

| SMILES | GI50 (LXFL 529) | GI50 (KM-20L2) | GI50 (DLD-1) | GI50 (SNB-78) | GI50 (RXF 631) | GI50 (DMS-273) | GI50 (HOP-18) | GI50 (M19-MEL) | GI50 (XF498) |
| --- | --- | --- | --- | --- | --- | --- | --- | --- | --- |
| O=C(CCCNC(=O)OCc1ccccc1)OCc1ccc2c(c1)C(=O)c1ccccc1C2=O | > 100 µM (inactive) | > 100 µM (inactive) | > 100 µM (inactive) | 38.4 µM (inactive) | > 78.7 µM (inactive) |  |  |  |  |
| CC(=O)N(/N=C\c1ccc([N+](=O)[O-])cc1)c1ccccc1 |  | > 100 µM (inactive) | > 100 µM (inactive) | > 100 µM (inactive) | > 100 µM (inactive) | > 100 µM (inactive) | > 100 µM (inactive) | > 100 µM (inactive) | > 100 µM (inactive) |
| CCN(CC)C(c1ccc(N(C)C)cc1)C(c1ccc(N(C)C)cc1)N(CC)CC (stereo unspecified) | 30.3 µM (inactive) | 64 µM (inactive) |  | 21.2 µM (inactive) | > 72.9 µM (inactive) | 44.8 µM (inactive) |  | 23.9 µM (inactive) |  |
| Clc1ccc2c(Cl)ncnc2c1I | 34 µM (inactive) | > 100 µM (inactive) | > 100 µM (inactive) |  |  | > 100 µM (inactive) |  | > 100 µM (inactive) | 91.6 µM (inactive) |
| Cc1ccc(C)c(NC(=O)C(=O)Nn2c(S)nc3ccccc3c2=O)c1 | > 100 µM (inactive) | > 100 µM (inactive) | > 100 µM (inactive) | > 100 µM (inactive) | > 100 µM (inactive) | > 100 µM (inactive) | > 100 µM (inactive) |  |  |
| N/C(=N\O)N/N=C/c1ccc(O)c(O)c1 | > 100 µM (inactive) | > 100 µM (inactive) | > 100 µM (inactive) | > 100 µM (inactive) | > 100 µM (inactive) | 34.5 µM (inactive) | > 100 µM (inactive) | > 100 µM (inactive) | > 100 µM (inactive) |
| O=C1c2cccc([N+](=O)[O-])c2C(=O)c2nccnc21 |  | 2.7 µM (inactive) | 2.84 µM (inactive) | 3.09 µM (inactive) |  | 3.5 µM (inactive) | 1.69 µM (inactive) | 0.122 µM (active) |  |
| CCOc1ccccc1/N=N/c1c(-c2ccccc2)nn(C(=O)CC(=O)Nc2cccc(Cl)c2)c1-c1ccccc1 | 39.5 µM (inactive) | 68.2 µM (inactive) | 20.4 µM (inactive) | 59.3 µM (inactive) |  | 22.5 µM (inactive) | > 100 µM (inactive) | 76.6 µM (inactive) | 62.4 µM (inactive) |
| CCCCCCCCCCCCCCCC/C(C(=O)OC)=C(/O)C(=O)OCC | > 100 µM (inactive) | > 100 µM (inactive) | > 100 µM (inactive) | > 100 µM (inactive) |  | > 100 µM (inactive) | > 100 µM (inactive) | > 100 µM (inactive) |  |
| O=C(O)c1ccc(C2C(=O)N[C@@H]3CCC[C@H]23)cc1 (stereo partly specified) | > 100 µM (inactive) | > 100 µM (inactive) | > 100 µM (inactive) | > 100 µM (inactive) |  | > 100 µM (inactive) | > 100 µM (inactive) | > 100 µM (inactive) |  |
| CCN(CC)CCOc1ccc(CCc2cc(OC)c(OC)c(OC)c2)cc1 | 35.1 µM (inactive) | 31.9 µM (inactive) | 64.1 µM (inactive) | > 100 µM (inactive) | 53.5 µM (inactive) | 18.2 µM (inactive) | > 100 µM (inactive) | 23.8 µM (inactive) | 23.7 µM (inactive) |
| CCCN(CCC)c1c([N+](=O)[O-])cc(S(N)(=O)=O)cc1[N+](=O)[O-] [ORYZALIN] | 16.1 µM (inactive) | 19.3 µM (inactive) | 19.1 µM (inactive) |  | 18.6 µM (inactive) | 18.8 µM (inactive) | 19.2 µM (inactive) | 20.2 µM (inactive) | 16.6 µM (inactive) |
